Values after ≈ are worked out from the molar mass of the structure shown.
What was measured:
Nucleic Acid [1] = assay: Binding affinity to 5'-GCGATATATGCG-3' DNA sequence in PBS buffer of pH 7.4 assessed as change in melting temperature by UV-VIS spectrophotometric analysis; type: nucleic-acid assay
Staphylococcus aureus [2] = assay: Antibacterial activity against Staphylococcus aureus by resazurine microtiter assay; type: functional
Nucleic Acid [3] = assay: Binding affinity to 5'-GCGATATATGCG-3' DNA sequence in PBS buffer of pH 7.4 assessed as increase in melting temperature by UV-VIS spectrophotometric analysis; type: nucleic-acid assay
Staphylococcus aureus [4] = assay: Antibacterial activity against Staphylococcus aureus at 200 uM by resazurine microtiter assay; type: functional; set-up: scale not given here
Mycolicibacterium aurum = assay: Antimycobacterial activity against Mycobacterium aurum at 37 degC using Mueller-Hinton broth by resazurine microtiter assay; type: functional
Aspergillus niger = assay: Antifungal activity against Aspergillus niger by resazurine microtiter assay; type: functional
Staphylococcus aureus [5] = assay: Antibacterial activity against Staphylococcus aureus isolate 2 by resazurine microtiter assay; type: functional
Staphylococcus aureus [6] = assay: Antibacterial activity against Staphylococcus aureus isolate 1 by resazurine microtiter assay; type: functional
Candida albicans = assay: Antifungal activity against Candida albicans by resazurine microtiter assay; type: functional
Enterococcus faecalis = assay: Antibacterial activity against Streptococcus faecalis by resazurine microtiter assay; type: functional

ΔTm (Nucleic Acid [1]) | MIC (Staphylococcus aureus [2]) | ΔTm (Nucleic Acid [3]) | MIC (Mycolicibacterium aurum) | SMILES | Activity (Staphylococcus aureus [4]) | further results
10 °C | – | – | – | COc1cccc(C(=O)Nc2ccc(C(=O)Nc3cc(C(=O)Nc4cc(C(=O)NCCN5CCOCC5)n(C)c4)n(C)c3)cc2)c1 | – | –
– | 16 µM (≈ 10.2 µg/mL) | 19 °C | 8 µM (≈ 5.12 µg/mL) | COc1ccc(/C=C/c2ccc(C(=O)Nc3cc(C(=O)Nc4cc(C(=O)NCCN5CCOCC5)n(C)c4)n(C(C)C)c3)nc2)cc1 | 6.7% | –
1 °C | – | – | – | COc1cccc(/N=N/c2ccc(C(=O)Nc3cc(C(=O)Nc4cc(C(=O)NCCN5CCOCC5)n(C)c4)n(C)c3)cc2)c1 | – | –
– | < 1 µM | 18 °C | 2 µM (≈ 1.32 µg/mL) | CC(C)n1cc(NC(=O)c2ccc(/C=C/c3cnc4ccccc4c3)cc2)cc1C(=O)Nc1cc(C(=O)NCCN2CCOCC2)n(C)c1 | 2.3% | –
– | 8 µM (≈ 5.23 µg/mL) | 16 °C | 31 µM (≈ 20.3 µg/mL) | CCC(C)n1cc(NC(=O)c2ccc(/C=C/c3ccc(OC)cc3)cn2)cc1C(=O)Nc1cc(C(=O)NCCN2CCOCC2)n(C)c1 (stereo not given) | 3.2% | –
17 °C | – | – | – | Cn1cc(NC(=O)c2cc(NC(=O)c3ccc(NC(=O)c4cnc5ccccc5c4)cc3)cn2C)cc1C(=O)NCCN1CCOCC1 | – | –
18 °C | – | 19 °C | – | Cn1cc(NC(=O)c2cc(NC(=O)c3ccc(/C=C/c4cnc5ccccc5c4)cc3)cn2C)cc1C(=O)NCCN1CCOCC1 [MGB-BP-3] | – | MIC (Aspergillus niger): 50 µM (≈ 31.6 µg/mL); MIC (Staphylococcus aureus [5]): 12.5 µM (≈ 7.9 µg/mL); MIC (Staphylococcus aureus [6]): 3.1 µM (≈ 1.96 µg/mL); MIC (Candida albicans): 25 µM (≈ 15.8 µg/mL); MIC (Enterococcus faecalis): 25 µM (≈ 15.8 µg/mL)
– | < 1 µM | 15 °C | 2 µM (≈ 1.35 µg/mL) | CCC(C)n1cc(NC(=O)c2ccc(/C=C/c3cnc4ccccc4c3)cc2)cc1C(=O)Nc1cc(C(=O)NCCN2CCOCC2)n(C)c1 (stereo not given) | 2.9% | –
2 °C | – | – | – | CN(C)c1ccc(/C=C/c2ccc(C(=O)Nc3cc(C(=O)Nc4cc(C(=O)NCCN5CCOCC5)n(C)c4)n(C)c3)cc2)cc1 | – | MIC (Aspergillus niger): > 100 µM; MIC (Staphylococcus aureus [5]): > 100 µM; MIC (Staphylococcus aureus [6]): > 100 µM; MIC (Candida albicans): 100 µM (≈ 62.4 µg/mL); MIC (Enterococcus faecalis): > 100 µM
– | – | – | – | COc1cccc(/C=C/c2ccc(C(=O)Nc3cc(C(=O)Nc4cc(C(=O)NCCN5CCOCC5)n(C)c4)n(C)c3)cc2)c1 | – | MIC (Aspergillus niger): 50 µM (≈ 30.5 µg/mL); MIC (Staphylococcus aureus [5]): 25 µM (≈ 15.3 µg/mL); MIC (Staphylococcus aureus [6]): 12.5 µM (≈ 7.63 µg/mL); MIC (Candida albicans): 100 µM (≈ 61.1 µg/mL); MIC (Enterococcus faecalis): 6.25 µM (≈ 3.82 µg/mL)
8 °C | – | – | – | CN(C)c1ccc(/N=N/c2ccc(C(=O)Nc3cc(C(=O)Nc4cc(C(=O)NCCN5CCOCC5)n(C)c4)n(C)c3)cc2)cc1 | – | –
– | – | 0 °C | – | CCC(C)n1cc(NC(=O)c2cc(NC(=O)c3ccc(/C=C/c4cnc5ccccc5c4)cc3)cn2C)cc1C(=O)NCCN1CCOCC1 (stereo not given) | 0.3% | –
18 °C | – | – | – | CN(C)c1ccc(C(=O)Nc2ccc(C(=O)Nc3cc(C(=O)Nc4cc(C(=O)NCCN5CCOCC5)n(C)c4)n(C)c3)cc2)cc1 | – | –
– | < 1 µM | 10 °C | 2 µM (≈ 1.32 µg/mL) | CC(C)n1cc(NC(=O)c2cc(NC(=O)c3ccc(/C=C/c4cnc5ccccc5c4)cc3)cn2C)cc1C(=O)NCCN1CCOCC1 | 0.8% | –
– | – | 16 °C | – | COc1ccc(/C=C/c2ccc(C(=O)Nc3cc(C(=O)Nc4cc(C(=O)NCCN5CCOCC5)n(C)c4)n(C)c3)nc2)cc1 | – | –
– | 4 µM (≈ 2.56 µg/mL) | 16 °C | 8 µM (≈ 5.12 µg/mL) | COc1ccc(/C=C/c2ccc(C(=O)Nc3cc(C(=O)Nc4cc(C(=O)NCCN5CCOCC5)n(C(C)C)c4)n(C)c3)nc2)cc1 | 8.5% | –
17 °C | – | – | – | Cn1cc(NC(=O)c2cc(NC(=O)c3ccc(/N=N/c4cnc5ccccc5c4)cc3)cn2C)cc1C(=O)NCCN1CCOCC1 | – | MIC (Aspergillus niger): 50 µM (≈ 31.7 µg/mL); MIC (Staphylococcus aureus [5]): > 100 µM; MIC (Staphylococcus aureus [6]): > 100 µM; MIC (Candida albicans): 25 µM (≈ 15.8 µg/mL); MIC (Enterococcus faecalis): > 100 µM
– | 16 µM (≈ 10.5 µg/mL) | 13 °C | 16 µM (≈ 10.5 µg/mL) | CCC(C)n1cc(NC(=O)c2cc(NC(=O)c3ccc(/C=C/c4ccc(OC)cc4)cn3)cn2C)cc1C(=O)NCCN1CCOCC1 (stereo not given) | 2.8% | –

— ChEMBL document CHEMBL1909638, “Amide isosteres in structure-activity studies of antibacterial minor groove binders” (2011)
